According to article PMC10511408, “Novel iodoquinazolinones bearing sulfonamide moiety as potential antioxidants and neuroprotectors” (Scientific Reports, 2023):
Where two headings read alike, the source gives them in different places.

Key:
[1] = biological target: acetylcholine esterase (AChE) (Homo sapiens, UniProt P22303); assay: biochemical
Procedure: The cholinesterase enzymes' inhibitory activity was evaluated using modified Osman et al.[45] method. Briefly, samples were initially dissolved in DMSO to achieve a concentration of 10 mg/mL. Then 0.1 mL of the sample was diluted to 1 mL methanol to reach the concentration of 1 mg/mL (concentration 1). From concentration (1), 0.1 mL was further diluted to 1 mL to reach the concentration of 0.1 mg/mL (concentration 2). Concentration 1 (1 mg/mL) will become 0.1 mg/mL inside the plate and concentration 2 will become 0.01 mg/mL due to the addition of the reagents of the assay that dilute the sample ten folds. […] Then 20 μL of the sample/standard solution was added followed by 140 μL of buffer (1). The mixture was allowed to stand for 15 min at room temperature.

[2] = Free radical scavenging activity (DPPH) assay; conditions: mean ± S.E (n = 3)
Procedure: The antioxidant activities of all newly synthesized compounds were measured as radical scavenging activities using 1,1-diphenyl-2-picrylhydrazyl (DPPH) (Sigma Chemical Co., Steinheim, Germany) and compared with ascorbic acid as a reference standard (Sigma-Aldrich Chemie GmbH, Taufkirchen, Germany)[46].
Where, 1 mL of the test compounds or ascorbic acid at concentrations (12.5, 25, 50 and 100 mg/mL) were mixed with 1 ml of the DPPH solution. The mixtures were incubated for 30 min at room temperature in dark. The absorbance was read using a JENWAY 6315 spectrophotometer (Keison Products, Chelmsford, England) at 517 nm against blank.
It was carried out in triplicate, and average values were used to determine the inhibitory percentage of DPPH according to the following equation: percent inhibition = [(B − A)/B]*100, where A is the absorbance of the compound or standard and B is the absorbance of blank. IC50 (µM) of each compound was calculated according to the nonlinear regression dose response-inhibition curve using Prism 5.03 (GraphPad, San Diego, CA, USA) and expressed as mean ± standard error (S.E).

[3] = Acute toxicity study (LD50); conditions: mouse, in vivo, ip; albino male mice, i.p.; read-out: LD50 (median lethal dose)
Procedure: Lethal dose fifty (LD50) was determined for the most promising compound 14 to estimate its acute toxicity in albino male mice. […] Consequently, one-tenth of this dose was selected as the therapeutic dose for further evaluation of the potential radioprotective effects of 14. This was following our previous studies[42],[63],[68].

irradiated mice [4] = assay: Open field test in irradiated mice; type: in vivo; conditions: 14 at 30 mg/kg/day i.p. for 7 days before 5 Gy irradiation
Procedure: (§1) Twenty-one mice were blindly allocated into three groups (n = 7). The first group (control) was injected i.p. with 10% DMSO, daily, for 7 days. The second one (irradiated) was treated as a control, and after 1 h from the last DMSO injection, the mice were exposed to 5 Gy gamma radiation. A third group (Compound 14 + irradiation) received 30 mg/kg/day i.p. (1/10 LD50) of compound 14, daily for 7 days. Then on the last day, after 1 h of injection, animals were irradiated at a dose of 5 Gy. After 24 h. of the last injection, behavioral tests were carried out. Immediately after behavioral test, mice were anesthetized using urethane ([…] i.p.)[49] and sacrificed by cervical dislocation then brain tissues were dissected out, rinsed with ice-cold saline, and dried on a filter paper. Then it was homogenized in ice-cold 0.1 M phosphate buffer saline (pH = 7.4) and stored at – 80 °C for subsequent biochemical analysis.
(§2) All behavioral tests have been carried out under blind conditions to avoid any bias in evaluating the animal's behavior. Mice were allowed to a pre-test session a day before scarification for habituation.
This evaluates locomotors and exploratory activities in mice where, the apparatus is transparent walls and a white floor 30 × 30 × 15 cm, divided into 16 squares of equal area. Each mouse was placed in the center of the open field test apparatus and allowed to roam freely for 5 min and latency time (ie, time taken to start moving) was detected as well as locomotion frequency as ambulation (ie, number of squares crossed), rearing frequency (ie, number of times the mice stand on its hind legs or with its forearm against the wall or in the free air)[50].

irradiated mice [5] = assay: Forced swimming test in irradiated mice; type: in vivo; conditions: 14 at 30 mg/kg/day i.p. for 7 days before 5 Gy irradiation; compared to radiation only
Procedure: as §1, §2
Mice were independently forced to swim in an open cylindrical container (22 cm diameter, 40 cm height) that contained water (23–25 °C).

Myeloperoxidase (MPO) = assay: MPO in brain tissue homogenate of irradiated mice (ELISA); type: in vivo; conditions: 14 at 30 mg/kg/day i.p. for 7 days, 5 Gy; compared to irradiated mice
Procedure: as §1
(§3) The antioxidant activity of compound 14 was measured by estimation of MPO activity using an ELISA Kit from MyBioSource Cat.No.: CSB-E08723m (Houston, TX., USA) as well as the level of GSH was evaluated using a colorimetric kit according to the method of E. Beutler[52].

Glutathione (GSH) = assay: GSH level in brain tissue homogenate of irradiated mice; type: in vivo; conditions: 14 at 30 mg/kg/day i.p. for 7 days, 5 Gy; compared to irradiated mice
Procedure: as §1, §3

[6] = test system: Acetylcholinesterase (AChE); assay: AChE in brain tissue homogenate of irradiated mice (ELISA); type: in vivo; conditions: 14 at 30 mg/kg/day i.p. for 7 days, 5 Gy; compared to radiation only
Procedure: (§4) Twenty-one mice were blindly allocated into three groups (n = 7). The first group (control) was injected i.p. with 10% DMSO, daily, for 7 days. […]. A third group (Compound 14 + irradiation) received 30 mg/kg/day i.p. (1/10 LD50) of compound 14, daily for 7 days. Then on the last day, after 1 h of injection, animals were irradiated at a dose of 5 Gy. After 24 h. of the last injection, behavioral tests were carried out. […]. Then it was homogenized in ice-cold 0.1 M phosphate buffer saline (pH = 7.4) and stored at – 80 °C for subsequent biochemical analysis.
(§5) Brain homogenates were used for measuring AChE using Mouse Acetylcholinesterase (AChE) ELISA Kit content using the Mouse Acetylcholinesterase ELISA Kit from MyBioSource Cat.No. MBS260553 (San Diego, CA., USA) according to the manufacturer’s instructions. The generation of norepinephrine (NE) in brain tissues was measured using an Eliza kit (MBS2600834) from MyBioSource (San Diego, CA, USA) according to the manufacturer’s instructions.

Norepinephrine (NE) = assay: Norepinephrine in brain tissue homogenate of irradiated mice (ELISA); type: in vivo; conditions: 14 at 30 mg/kg/day i.p. for 7 days, 5 Gy; Fig. 6B
Procedure: as §4, §5

[7] = in vitro, mean ± S.E (n = 3), read-out: AChE IC50

acetylcholine esterase (AChE), sequence (P22303 32-614): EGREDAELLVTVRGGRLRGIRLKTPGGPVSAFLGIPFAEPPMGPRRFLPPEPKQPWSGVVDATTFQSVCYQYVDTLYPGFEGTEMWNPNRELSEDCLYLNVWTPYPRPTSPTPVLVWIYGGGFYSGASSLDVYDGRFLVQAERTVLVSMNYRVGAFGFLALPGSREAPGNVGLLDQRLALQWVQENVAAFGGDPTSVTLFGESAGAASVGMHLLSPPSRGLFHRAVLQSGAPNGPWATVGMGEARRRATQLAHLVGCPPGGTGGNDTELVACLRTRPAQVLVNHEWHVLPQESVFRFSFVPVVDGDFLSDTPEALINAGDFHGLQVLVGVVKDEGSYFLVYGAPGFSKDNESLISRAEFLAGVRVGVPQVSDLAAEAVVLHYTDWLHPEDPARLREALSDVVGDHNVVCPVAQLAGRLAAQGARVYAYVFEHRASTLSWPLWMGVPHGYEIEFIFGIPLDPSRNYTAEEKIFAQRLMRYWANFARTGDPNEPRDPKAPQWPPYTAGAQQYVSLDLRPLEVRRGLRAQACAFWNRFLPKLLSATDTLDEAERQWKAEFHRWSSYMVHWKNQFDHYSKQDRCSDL

SMILES	IC50 [2] [µM]	IC50 [1, 7] [µM]	further results
CCOC(=O)N1CCC(NC(=O)CSc2nc3ccc(I)cc3c(=O)n2-c2ccc(S(N)(=O)=O)cc2)CC1 [Compound 10, Ethyl 4-(2-(6-iodo-4-oxo-3-(4-sulfamoylphenyl)-3,4-dihydroquinazolin-2-ylthio)acetamido) piperidine-1-carboxylate]	154.9 ± 1.24	–	IC50 [1]: > 0.1 µM
NS(=O)(=O)c1ccc(-n2c(SCC(=O)NC3CCN(Cc4ccccc4)CC3)nc3ccc(I)cc3c2=O)cc1 [Compound 11, N-(1-Benzylpiperidin-4-yl)-2-(6-iodo-4-oxo-3-(4-sulfamoylphenyl)-3,4-dihydroquinazolin-2-ylthio) acetamide]	109 ± 1.09	0.0239 ± 0.00141	–
NS(=O)(=O)c1ccc(-n2c(SCC(=O)NN3CCOCC3)nc3ccc(I)cc3c2=O)cc1 [Compound 9, 2-(6-Iodo-4-oxo-3-(4-sulfamoylphenyl)-3,4-dihydroquinazolin-2-ylthio)-N-morpholinoacetamide]	148 ± 1.53	> 0.1	–
CCOC(=O)c1cccc(NC(=O)CSc2nc3ccc(I)cc3c(=O)n2-c2ccc(S(N)(=O)=O)cc2)c1 [Compound 13, Ethyl 3-(2-(6-iodo-4-oxo-3-(4-sulfamoylphenyl)-3,4-dihydroquinazolin-2-ylthio)acetamido)benzoate]	129.1 ± 1.03	0.0748 ± 0.00306	–
CCOc1ccc2nc(NC(=O)CSc3nc4ccc(I)cc4c(=O)n3-c3ccc(S(N)(=O)=O)cc3)sc2c1 [Compound 7, N-(6-Ethoxybenzo[d]thiazol-2-yl)-2-(6-iodo-4-oxo-3-(4-sulfamoylphenyl)-3,4-dihydroquinazolin-2-ylthio) acetamide]	118.8 ± 0.92	0.09 ± 0.00583	–
Cc1cc(NC(=O)CSc2nc3ccc(I)cc3c(=O)n2-c2ccc(S(N)(=O)=O)cc2)no1 [Compound 5, 2-(6-Iodo-4-oxo-3-(4-sulfamoylphenyl)-3,4-dihydroquinazolin-2-ylthio)-N-(5-methylisoxazol-3-yl) acetamide]	149.8 ± 1.26	> 0.1	–
NS(=O)(=O)c1ccc(-n2c(SCC(=O)Nc3c[nH]c(=O)[nH]c3=O)nc3ccc(I)cc3c2=O)cc1 [Compound 15, N-(2,4-Dioxo-1,2,3,4-tetrahydropyrimidin-5-yl)-2-(6-iodo-4-oxo-3-(4-sulfamoylphenyl)-3,4-dihydroquinazolin-2-ylthio) acetamide]	136.3 ± 1.3	> 0.1	–
CN1C(=O)c2ccc(NC(=O)CSc3nc4ccc(I)cc4c(=O)n3-c3ccc(S(N)(=O)=O)cc3)cc2C1=O [Compound 17, 2-(6-Iodo 4-oxo-3-(4-sulfamoylphenyl)-3,4-dihydroquinazolin-2-ylthio)-N-(2-methyl-1,3-dioxoisoindolin-5-yl) acetamide]	127 ± 1.93	0.0774 ± 0.00129	–
NS(=O)(=O)c1ccc(-n2c(SCC(=O)Nc3nccs3)nc3ccc(I)cc3c2=O)cc1 [Compound 6, 2-(6-Iodo-4-oxo-3-(4-sulfamoylphenyl)-3,4-dihydroquinazolin-2-ylthio)-N-(thiazol-2-yl) acetamide]	143.4 ± 1.12	> 0.1	–
NS(=O)(=O)c1ccc(-n2c(SCC(=O)Nc3cnccn3)nc3ccc(I)cc3c2=O)cc1 [Compound 14, 2-(6-Iodo-4-oxo-3-(4-sulfamoylphenyl)-3,4-dihydroquinazolin-2-ylthio)-N-(pyrazin-2-yl) acetamide]	95.5 ± 1.67	0.0116 ± 0.00045	LD50 [3]: 300 mg/kg; ambulation (open field test), effect of radiation abolished by (irradiated mice [4]): 31%; open field parameters (latency, ambulation, rearing) (irradiated mice [4]): normalized all open field parameters; decrease in latency time (open field test) (irradiated mice [4]; compared with mice that received radiation alone): 72.4%; decrease in mean immobility time (forced swimming test) (irradiated mice [5]): 33%; decrease in brain MPO (Myeloperoxidase (MPO)): 39.6%; increase in brain GSH levels (Glutathione (GSH)): 17%; decrease in brain AChE [6]: 21%; Norepinephrine (NE), effect of radiation abolished by (Norepinephrine (NE)): 25%
CCOC(=O)c1ccccc1NC(=O)CSc1nc2ccc(I)cc2c(=O)n1-c1ccc(S(N)(=O)=O)cc1 [Compound 12, Ethyl 2-(2-(6-iodo-4-oxo-3-(4-sulfamoylphenyl)-3,4-dihydroquinazolin-2-ylthio)acetamido)benzoate]	122.3 ± 0.92	0.0607 ± 0.0028	–
Cn1c(NC(=O)CSc2nc3ccc(I)cc3c(=O)n2-c2ccc(S(N)(=O)=O)cc2)cc(=O)n(C)c1=O [Compound 16, N-(1,3-Dimethyl-2,6-dioxo-1,2,3,6-tetrahydropyrimidin-4-yl)-2-(6-iodo-4-oxo-3-(4-sulfamoylphenyl)-3,4-dihydroquinazolin-2-ylthio) acetamide]	137.3 ± 0.29	0.0862 ± 0.00214	–
NS(=O)(=O)c1ccc(-n2c(SCC(=O)Nc3nc4ccc([N+](=O)[O-])cc4s3)nc3ccc(I)cc3c2=O)cc1 [Compound 8, 2-(6-Iodo-4-oxo-3-(4-sulfamoylphenyl)-3,4-dihydroquinazolin-2-ylthio)-N-(6-nitrobenzo[d]thiazol-2-yl) acetamide]	177 ± 1.99	> 0.1	–
O=C1O[C@H]([C@@H](O)CO)C(O)=C1O [Ascorbic acid, ascorbic acid, reference compound]	112.8 ± 1.03	–	–
